# Laboratory results: US20070027634A1, “Molecular hepatotoxicology modeling” (priority 2002, published 2007)
# Assays:
# [1] = cited from earlier work
# [2] = cited from earlier work; remark: listed apart in the source
# [3] = in vivo; cited from earlier work
# [4] = Serum clinical chemistry of dosed rats (studies by the present inventors); conditions: AY-25329; as early as 6 hours after the first dose; 14 day study
# [5] = Light microscopic analysis of liver and kidney of dosed rats (present inventors)
# [6] = dogs, after treatment; cited from earlier work
# [7] = rat liver mitochondria; cited from earlier work
# [8] = cited from earlier work; remark: listed apart in the source
# [9] = rats and mice; cited from earlier work
# [10] = mice; cited from earlier work
# rat hepatocytes = conditions: cited from earlier work
# [11] = rats and hamsters; cited from earlier work
# [12] = hamster livers; cited from earlier work
# [13] = tested on: human hepatoma cell lines; conditions: cited from earlier work
# [14] = in vivo; cited from earlier work; remark: listed apart in the source
# [15] = 14 days of repeated dosing, 250 mg/kg/day
# [16] = acute administration, male rats
# [17] = male Sprague Dawley rats, 0.1, 1, 2, 3, 4 mL/kg ip, […] po
# [18] = male Sprague Dawley rats, peak within 48 hours post dose
structure (smiles),measurement,setting,value
"CC(=O)Nc1ccc2c(c1)Cc1ccccc1-2 [2-AAF, 2-acetylaminofluorene]",liver finding (pathology),[1]; rats,cirrhosis-like changes in the liver
same,ALT (alanine aminotransferase) level in serum or plasma,[2]; rats,elevated
same,AST (aspartate aminotransferase) level in serum or plasma,[2]; rats,elevated
C#C[C@]1(O)CC[C@H]2[C@@H]3CCc4cc(O)ccc4[C@H]3CC[C@@]21C [17α-ethinylestradiol],activity of liver enzyme alkaline phosphatase,[1]; male rats,"initially showed significant increases, but enzyme levels decreased after 3 days"
same,activity of liver enzyme leucine aminopeptidase,[1]; male rats,"initially showed significant increases, but enzyme levels decreased after 3 days"
same,bile flow,[1]; male rats,decrease
same,bilirubin output,[1]; male rats,increased
same,glutathione (GSH) output,[1]; male rats,decreased
same,liver finding (pathology),[1]; rats,reversible intrahepatic cholestasis
same,liver weight,[1]; rats,increase
same,plasma cholesterol level,[2]; male rats,decrease
same,plasma level of bile salts,[2]; male rats,not changed
same,plasma level of bilirubin,[2]; male rats,not changed
same,plasma triglyceride level,[2]; male rats,decrease
same,ALT (alanine aminotransferase) level in serum or plasma,[2]; rats,not changed
same,AST (aspartate aminotransferase) level in serum or plasma,[2]; rats,not changed
"S=C=Nc1cccc2ccccc12 [ANIT, α-naphthylisothiocyanate]",activity of catalase,[3],decreased
same,activity of superoxide dismutase,[3],decreased
same,serum glutamic oxaloacetic transaminase,[3],increase
same,serum glutamic pyruvic transaminase,[3],increase
same,serum level of alkaline phosphatase,[3],increase
same,serum level of total bilirubin,[3],increase
same,total bile flow,[3],reduced
O=C(CCN1CCN2CCCC2C1)N1c2ccccc2Sc2ccc(Cl)cc21 (stereo not drawn) [AY-25329],serum level of ALT,[4],statistically significant increases
same,serum level of BUN,[4],statistically significant increases
same,serum level of cholesterol,[4],statistically significant increases
same,serum level of creatinine,[4],statistically significant increases
same,serum level of triglycerides,[4],statistically significant increases
same,kidney finding,[5]; [15],nephrosis
same,liver finding,[5]; [15],alterations in the peripheral lobes of the liver and in the cytoplasm of hepatocytes
same,hepatocytic mitotic figures (light microscopy),"[5]; liver, 6 and 24 hours",increased number
same,liver glycogen content (light microscopy),"[5]; liver, 6 and 24 hours",decreased
"ClC(Cl)(Cl)Cl [CCl4, carbon tetrachloride]",time of peak centrilobular necrosis and inflammatory infiltration,"[1]; acute administration, male rats, post dose",24 to 48 h
same,time to cytoplasmic accumulation of lipids in hepatocytes,[1]; [16],1 to 3 h
same,time to focal necrosis and hydropic swelling of hepatocytes,[1]; [16],5 to 6 h
same,time to full restoration of the liver,[1]; [16],≤ 14 days
same,serum α-glutathione s-transferase (α-GST) level,"[2]; male SD rats, 25 μL/kg po, as early as 2 hours after administration",Significant increases
same,time after administration within which ALT level increases,[2]; [17],≤ 3 h
same,time after administration within which AST level increases,[2]; [17],≤ 3 h
same,peak increase of ALT level,[2]; [18],5-10 fold
same,peak increase of AST level,[2]; [18],5-10 fold
"Cl.Nc1nc2c(Cc3ccsc3)c[nH]c2c(=O)[nH]1.O [CI-1000, 4H-pyrrolo:3,2-d:pyrimidin-4-one, 2-amino-3,5-dihydro-7-(3-thienylmethyl)-monohydrochloride monohydrate]",serum ALT level,[6],increased
"CC(=O)O[C@]1(C(C)=O)CC[C@H]2[C@@H]3C=C(Cl)C4=CC(=O)[C@@H]5C[C@@H]5[C@]4(C)[C@H]3CC[C@@]21C [CPA, Cyproterone acetate]",time after which continuous DNA repair activity was observed,"[1]; rats, single oral dose",16 h
same,occurrence of S phase cells in rat liver,[1]; rats,increased
"CN(C)N=O [DMN, dimethylnitrosamine]",hydroxyproline levels (indicator of fibrosis),[1]; rats,elevated
same,liver finding (pathology),[1]; rats,severe centrilobular congestion and haemorrhagic necrosis
same,ALT (alanine aminotransferase) level in serum or plasma,[2]; rats,increased
same,serum SOD,[2]; rats,decreased
same,serum malondialdehyde (MDA),[2]; rats,increased
Cc1cccc(Nc2cc(Cl)nc(SCC(=O)O)n2)c1C [Wy-14643],oxidative phosphorylation,[7],capable of uncoupling oxidative phosphorylation
CC(=O)Nc1ccc(O)cc1 [acetaminophen],liver finding (pathology),[1]; rats,hepatocellular necrosis
same,time after dosing at which hepatotoxicity can be observed,[1]; rats,24 h
same,ALT (alanine aminotransferase) level in serum or plasma,[2]; rats,statistically significant elevations
same,AST (aspartate aminotransferase) level in serum or plasma,[2]; rats,statistically significant elevations
CC(O)(CS(=O)(=O)c1ccc(F)cc1)C(=O)Nc1ccc(C#N)c(C(F)(F)F)c1 (stereo not drawn) [bicalutamide],ALT / glutamic-pyruvic transaminase (GPT) level,[8]; humans,elevated levels
same,AST / glutamic-oxalacetic transaminase (GOT) level,[8]; humans,elevated levels
same,alkaline phosphatase (AL-P) level,[8]; humans,elevated levels
same,gamma guanosine 5′-triphosphate (gamma-GTP) level,[8]; prostate cancer patients,elevated levels
same,levels of CYP3A1,[1]; rats,elevated levels
"ClC(Cl)Cl [chloroform, Chloroform]","markers of hepatocellular regeneration (alpha-fetoprotein, retinol-binding protein, gamma-glutamyl transferase and des-gamma-carboxyprothrombin)","[8]; humans, poisoning",increased levels
same,alkaline phosphatase (AL-P) level,[8]; humans,decreased levels
same,time to cytoplasmic accumulation of lipids in hepatocytes,[1]; [16],1 to 3 h
same,time to focal necrosis and hydropic swelling of hepatocytes,[1]; [16],5 to 6 h
same,level of BUN,[9],increased levels
same,level of phosphatidyl-ethanolamine,[9],decreased levels
same,level of serum creatinine,[9],increased levels
same,level of tissue glutathione (GSH),[9],decreased levels
same,levels of 5-methylcytosine and of the methylated c-myc gene,[10],Decreased levels
CCOC(=O)C(C)(C)Oc1ccc(Cl)cc1 [clofibrate],levels of copper in neoplastic liver tissues,[1]; rat study of liver hyperplasia and liver tumors,increased levels
same,liver finding (pathology),[1]; rats,"hepatocellular hypertrophy, cellular proliferation, hepatomegaly, induction of CYP450 isozymes, and induction of palmitoyl CoA oxidation"
O=C(O)c1cc(-c2ccc(F)cc2F)ccc1O [diflunisal],LDH (lactic acid dehydrogenase) leakage,rat hepatocytes; rat hepatocytes,increase
same,intracellular ATP,rat hepatocytes; rat hepatocytes,decreased
Cc1ccc(C)c(OCCCC(C)(C)C(=O)O)c1 [gemfibrozil],DT-diaphorase activity,[11],increase
same,alpha-tocopherol,[11],decrease
"NN [hydrazine, Hydrazine]",liver finding (pathology),[1]; rats,induction of fatty liver
same,liver weight,[1]; rats,increases
same,hepatic adenomas and carcinomas,[12],developed in a dose-dependent manner
same,GSH,rat hepatocytes; rat hepatocytes,depletion
same,LDH (lactic acid dehydrogenase) leakage,rat hepatocytes; rat hepatocytes,leakage
same,intracellular ATP,rat hepatocytes; rat hepatocytes,depletion
same,rate of protein synthesis,rat hepatocytes; rat hepatocytes,decreased
same,viability,rat hepatocytes; rat hepatocytes,dose-dependent loss
COc1ccc2c(c1)c(CC(=O)O)c(C)n2C(=O)c1ccc(Cl)cc1 [indomethacin],"liver and renal microsomal enzymes, including CYP450","[1]; rats, single dose",reduce
"Cl.Nc1c2c(nc3ccccc13)CCCC2 [tacrine, 1,2,3,4-tetrahydro-9-aminoacridine-hydrochloride]",cytotoxicity,[13],displayed cytotoxicity
same,liver finding (pathology),[1]; rats,have not shown a correlation between tacrine exposure and hepatotoxicity
same,cytotoxicity,rat hepatocytes; primary rat hepatocytes,displayed cytotoxicity
"CC(=N)S [thioacetamide, Thioacetamide]",ALT (alanine aminotransferase) level in serum or plasma,[2]; rats,elevated levels
same,AST (aspartate aminotransferase) level in serum or plasma,[2]; rats,elevated levels
same,serum BUN,[2]; rats,elevated levels
same,serum TNFα,[2]; rats,elevated levels
same,serum creatinine,[2]; rats,elevated levels
same,serum total bilirubin,[2]; rats,elevated levels
"CCCC(CCC)C(=O)O [valproate, n-dipropylacetic acid]",share of patients with elevated levels of hepatic enzymes,[8]; patients,about 40%
same,liver finding (pathology),[1]; rats,microvesicular steatosis
same,amounts of acyl-CoA esters,rat hepatocytes; cultured rat hepatocytes,increased amounts
same,LDH (lactic acid dehydrogenase) leakage,rat hepatocytes; rat hepatocytes,dose-dependent leakage
CC(c1cc2ccccc2s1)N(O)C(N)=O (stereo not drawn) [zileuton],levels of liver peroxisomal palmitoyl CoA oxidase,[14],elevated levels
same,levels of microsomal cytochromes P450 2B and P450 4A,[14],elevated levels
same,liver size,[14],hepatomegaly
